PubChem BioAssay (NCI)
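Results reflect a 48-hour exposure of cells in 96-well plates to compound at five concentrations. TGI: concentration producing complete growth inhibition.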

Key:
Assay in all cases: inhibition of tumour cell growth, NCI panel, 48 h
SNB-19 CNS = tested on: SNB-19 CNS
SF-295 CNS = tested on: SF-295 CNS
OVCAR-3 ovarian = tested on: OVCAR-3 ovarian
786-0 renal = tested on: 786-0 renal
HOP-18 NSCLC = tested on: HOP-18 NSCLC
HCT-15 colon = tested on: HCT-15 colon
UACC-62 melanoma = tested on: UACC-62 melanoma
BT-549 breast = tested on: BT-549 breast
T-47D breast = tested on: T-47D breast
SK-MEL-28 melanoma = tested on: SK-MEL-28 melanoma
EKVX NSCLC = tested on: EKVX NSCLC
U251 CNS = tested on: U251 CNS
LXFL 529 NSCLC = tested on: LXFL 529 NSCLC
PC-3 prostate = tested on: PC-3 prostate
SNB-75 CNS = tested on: SNB-75 CNS
HCT-116 colon = tested on: HCT-116 colon
HOP-92 NSCLC = tested on: HOP-92 NSCLC
LOX IMVI melanoma = tested on: LOX IMVI melanoma
KM20L2 colon = tested on: KM20L2 colon
HL-60(TB) leukemia = tested on: HL-60(TB) leukemia
A498 renal = tested on: A498 renal
SK-MEL-2 melanoma = tested on: SK-MEL-2 melanoma
DU-145 prostate = tested on: DU-145 prostate
HT29 colon = tested on: HT29 colon
COLO 205 colon = tested on: COLO 205 colon
DLD-1 colon = tested on: DLD-1 colon
ACHN renal = tested on: ACHN renal
MCF7 breast = tested on: MCF7 breast
HCC-2998 colon = tested on: HCC-2998 colon
CCRF-CEM leukemia = tested on: CCRF-CEM leukemia
M14 melanoma = tested on: M14 melanoma
MOLT-4 leukemia = tested on: MOLT-4 leukemia
A549 NSCLC = tested on: A549 NSCLC
OVCAR-5 ovarian = tested on: OVCAR-5 ovarian
UACC-257 melanoma = tested on: UACC-257 melanoma
RPMI-8226 leukemia = tested on: RPMI-8226 leukemia
NCI-H460 lung = tested on: NCI-H460 lung
RXF 393 renal = tested on: RXF 393 renal
TK-10 renal = tested on: TK-10 renal
SF-268 CNS = tested on: SF-268 CNS
SNB-78 CNS = tested on: SNB-78 CNS
MDA-N = tested on: MDA-N
MALME-3M melanoma = tested on: MALME-3M melanoma
HOP-62 NSCLC = tested on: HOP-62 NSCLC
M19-MEL melanoma = tested on: M19-MEL melanoma
K-562 leukemia = tested on: K-562 leukemia
SW-620 colon = tested on: SW-620 colon
NCI-H226 lung = tested on: NCI-H226 lung
SN12C renal = tested on: SN12C renal
IGROV1 ovarian = tested on: IGROV1 ovarian
SK-OV-3 ovarian = tested on: SK-OV-3 ovarian
OVCAR-8 ovarian = tested on: OVCAR-8 ovarian
SF-539 CNS = tested on: SF-539 CNS
UO-31 renal = tested on: UO-31 renal
MDA-MB-231 breast = tested on: MDA-MB-231 breast
CAKI-1 renal = tested on: CAKI-1 renal
SK-MEL-5 melanoma = tested on: SK-MEL-5 melanoma
SR leukemia = tested on: SR leukemia
NCI-H23 lung = tested on: NCI-H23 lung
DMS 114 small cell lung = tested on: DMS 114 small cell lung
OVCAR-4 ovarian = tested on: OVCAR-4 ovarian
KM12 colon = tested on: KM12 colon
NCI-H522 lung = tested on: NCI-H522 lung
HS 578T breast = tested on: HS 578T breast
DMS 273 small cell lung = tested on: DMS 273 small cell lung

`C=C[C@]1(C)CC(O)C2C(=C)C(=O)OC2[C@H]1C(=C)C=O` (some centres not stated) gave a TGI (SNB-19 CNS) of 44.1 µM, a TGI (SF-295 CNS) of 30.2 µM and a TGI (OVCAR-3 ovarian) of 7.24 µM. For the same compound, the TGI (786-0 renal) was 4.47 µM, the TGI (HOP-18 NSCLC) was 15.1 µM and the TGI (HCT-15 colon) was 7.22 µM. It also gave a TGI (UACC-62 melanoma) of 3.83 µM, a TGI (BT-549 breast) of 15.8 µM and a TGI (T-47D breast) of 9.35 µM. It also gave a TGI (SK-MEL-28 melanoma) of 4.37 µM, a TGI (EKVX NSCLC) of 33.7 µM and a TGI (U251 CNS) of 24.8 µM. The TGI (LXFL 529 NSCLC) was 3.47 µM, the TGI (PC-3 prostate) was 10 µM and the TGI (SNB-75 CNS) was 47.9 µM. For the same compound, the TGI (HCT-116 colon) was 3.26 µM, the TGI (HOP-92 NSCLC) was 6.08 µM and the TGI (LOX IMVI melanoma) was 4.6 µM. The TGI (KM20L2 colon) was 17.4 µM, the TGI (HL-60(TB) leukemia) was 2.41 µM and the TGI (A498 renal) was 14.7 µM. It also gave a TGI (SK-MEL-2 melanoma) of 13.4 µM, a TGI (DU-145 prostate) of 27.1 µM and a TGI (HT29 colon) of 7.05 µM. For the same compound, the TGI (COLO 205 colon) was 21.7 µM, the TGI (DLD-1 colon) was 6.73 µM and the TGI (ACHN renal) was 6.33 µM. It also gave a TGI (MCF7 breast) of 3.18 µM, a TGI (HCC-2998 colon) of 27.9 µM and a TGI (CCRF-CEM leukemia) of 4.4 µM. It also gave a TGI (M14 melanoma) of 8.18 µM, a TGI (MOLT-4 leukemia) of 21.8 µM and a TGI (A549 NSCLC) of 43.6 µM. It also gave a TGI (OVCAR-5 ovarian) of 24.8 µM, a TGI (UACC-257 melanoma) of 4.31 µM and a TGI (RPMI-8226 leukemia) of 5.94 µM. The TGI (NCI-H460 lung) was 31.8 µM, the TGI (RXF 393 renal) was 4.83 µM and the TGI (TK-10 renal) was 11.4 µM. The TGI (SF-268 CNS) was 8.21 µM, the TGI (SNB-78 CNS) was 13.4 µM and the TGI (MDA-N) was 36.8 µM. For the same compound, the TGI (MALME-3M melanoma) was 3.62 µM, the TGI (HOP-62 NSCLC) was 34 µM and the TGI (M19-MEL melanoma) was 7.98 µM. The TGI (K-562 leukemia) was 8.52 µM, the TGI (SW-620 colon) was 4.19 µM and the TGI (NCI-H226 lung) was 13.9 µM. The TGI (SN12C renal) was 5.88 µM, the TGI (IGROV1 ovarian) was 25 µM and the TGI (SK-OV-3 ovarian) was 66.2 µM. It also gave a TGI (OVCAR-8 ovarian) of 6.74 µM, a TGI (SF-539 CNS) of 10.5 µM and a TGI (UO-31 renal) of 13.7 µM. It also gave a TGI (MDA-MB-231 breast) of 10.3 µM, a TGI (CAKI-1 renal) of 13.5 µM and a TGI (SK-MEL-5 melanoma) of 6.66 µM. It also gave a TGI (SR leukemia) of 20 µM, a TGI (NCI-H23 lung) of 7.62 µM and a TGI (DMS 114 small cell lung) of 22.6 µM. It also gave a TGI (OVCAR-4 ovarian) of 17.7 µM, a TGI (KM12 colon) of 12.5 µM and a TGI (NCI-H522 lung) of 2.35 µM. The TGI (HS 578T breast) was over 100 µM.
`COc1nc(=O)cc(N)n1C1OC(CO)C(O)C1O` (configuration not stated) was tested, and the TGI (SNB-19 CNS) was over 100 µM, the TGI (SF-295 CNS) was over 100 µM and the TGI (OVCAR-3 ovarian) was over 100 µM. For the same compound, the TGI (786-0 renal) was over 100 µM, the TGI (HCT-15 colon) was over 100 µM and the TGI (UACC-62 melanoma) was over 100 µM. For the same compound, the TGI (SK-MEL-28 melanoma) was over 100 µM, the TGI (EKVX NSCLC) was over 100 µM and the TGI (U251 CNS) was over 100 µM. It also gave a TGI (LXFL 529 NSCLC) of over 100 µM, a TGI (SNB-75 CNS) of over 100 µM and a TGI (HCT-116 colon) of over 100 µM. The TGI (LOX IMVI melanoma) was over 100 µM, the TGI (KM20L2 colon) was over 100 µM and the TGI (HL-60(TB) leukemia) was over 100 µM. The TGI (A498 renal) was over 100 µM, the TGI (SK-MEL-2 melanoma) was over 100 µM and the TGI (HT29 colon) was over 100 µM. The TGI (COLO 205 colon) was over 100 µM, the TGI (DLD-1 colon) was over 100 µM and the TGI (ACHN renal) was over 100 µM. It also gave a TGI (DMS 273 small cell lung) of over 100 µM, a TGI (HCC-2998 colon) of over 100 µM and a TGI (CCRF-CEM leukemia) of over 100 µM. It also gave a TGI (M14 melanoma) of over 100 µM, a TGI (MOLT-4 leukemia) of over 100 µM and a TGI (A549 NSCLC) of over 100 µM. For the same compound, the TGI (OVCAR-5 ovarian) was over 100 µM, the TGI (UACC-257 melanoma) was over 100 µM and the TGI (RPMI-8226 leukemia) was over 100 µM. The TGI (NCI-H460 lung) was over 100 µM, the TGI (RXF 393 renal) was over 100 µM and the TGI (TK-10 renal) was over 100 µM. The TGI (SF-268 CNS) was over 100 µM, the TGI (SNB-78 CNS) was over 100 µM and the TGI (MALME-3M melanoma) was over 100 µM. It also gave a TGI (HOP-62 NSCLC) of over 100 µM, a TGI (M19-MEL melanoma) of over 100 µM and a TGI (K-562 leukemia) of over 100 µM. For the same compound, the TGI (SW-620 colon) was over 100 µM, the TGI (NCI-H226 lung) was over 100 µM and the TGI (SN12C renal) was over 100 µM. The TGI (IGROV1 ovarian) was over 100 µM, the TGI (SK-OV-3 ovarian) was over 100 µM and the TGI (OVCAR-8 ovarian) was over 100 µM. It also gave a TGI (SF-539 CNS) of over 100 µM, a TGI (UO-31 renal) of over 100 µM and a TGI (CAKI-1 renal) of over 100 µM. It also gave a TGI (SK-MEL-5 melanoma) of over 100 µM, a TGI (NCI-H23 lung) of over 100 µM and a TGI (DMS 114 small cell lung) of over 100 µM. For the same compound, the TGI (KM12 colon) was over 100 µM and the TGI (NCI-H522 lung) was over 100 µM.
